According to EP4389751A1, “HETEROCYCLIC COMPOUNDS AND USES THEREOF” (Kumquat Biosciences Inc., priority 2021, dated 2024):

Biological target: T1, K-Ras G12S (Homo sapiens, UniProt P01116, G12S)
T1 construct: made in house; host or cells: E. coli (e.g., BL21 (DE3))
Assay: HTRF assay of the K-Ras / SOS1 interaction
Assay type: biochemical
Details: IC50 (against K-Ras G12D) to IC50 (against K-Ras G12S)
Description: This assay can be also used to assess a selective inhibition or reduction of signaling output of a mutant Ras protein relative to a wildtype, or relative to a different mutant Ras protein. For example, the equilibrium interaction of wildtype Kras or K-Ras mutant (e.g., wildtype or a mutant thereof including those mentioned in Example 6) with SOS1 (e.g., hSOS1) can be assessed as a proxy or an indication for a subject compound's ability to bind and inhibit Ras protein. HTRF assay detects from (i) a fluorescence resonance energy transfer (FRET) donor (e.g., antiGST-Europium) that is bound to GST-tagged K-Ras mutant to (ii) a FRET acceptor (e.g., anti-6His-XL665) bound to a His-tagged hSOS 1.
The assay buffer can contain ~5 mM HEPES pH 7.4, -150 mM NaCI, - 1 mM DTT, 0.05% BSA and 0.0025% (v/v) Igepal. A Ras working solution is prepared in an assay buffer containing typically a suitable amount of the protein construct (e.g., GST-tagged K-Ras mutant) and the FRET donor (e.g., antiGST-Eu(K) from Cisbio, France). A SOS1 working solution is prepared in an assay buffer containing suitable amount of the protein construct (e.g., His-hSOS1) and the FRET acceptor (e.g., anti-6His-XL665 from Cisbio, France). A suitable amount of the protein construct will depend on the range of activity or range of IC50 values being detected or under investigation. For detecting IC50 within a range of 500 nM, the protein constructs of the same range of molarity can be utilized.
A fixed volume of DMSO with or without test compound is transferred into a 384-well plate. Ras working solution is added to all wells of the test plate. SOS1 working solution is added to all wells except for those that are subsequently filled the inhibitor control solution. Upon incubation for about 10 minutes or longer, the fluorescence is measured with a M1000Pro plate reader (Tecan) using HTRF detection (excitation 337nm, emission 1 : 620nm, emission 2: 665nm). Compounds are tested in duplicates at different concentrations (for example, 10 µM, 2.5 µM, 0.63 µM, 0.16 µM, 0.04 µM, 0.01 µM test compound). The ratiometric data (i.e., emission 2 divided by emission 1) is used to calculate IC50 values against Ras using GraphPad Prism (GraphPad software). Following this general procedure, samples were tested with or without a subject compound disclosed herein including compounds exemplified in Table 3 to assess their abilities to inhibit K-Ras G12S relative to another mutant (e.g., K-Ras G12D). Signaling output measured in terms of IC50 values can be obtained, a ratio of IC50 against one mutant relative to another mutant can be calculated. For instance, a selective reduction of K-Ras G12S signaling output can be evidenced by a ratio greater than one. In particular, a selective reduction of K-Ras G12S signaling relative to K-Ras G12D signaling is evidenced as the ratio of IC50 (against K-Ras G12D) to IC50 (against K-Ras G12S) is greater than 1. […]

T1 sequence (P01116 1-188 isoform P01116-2 G12S): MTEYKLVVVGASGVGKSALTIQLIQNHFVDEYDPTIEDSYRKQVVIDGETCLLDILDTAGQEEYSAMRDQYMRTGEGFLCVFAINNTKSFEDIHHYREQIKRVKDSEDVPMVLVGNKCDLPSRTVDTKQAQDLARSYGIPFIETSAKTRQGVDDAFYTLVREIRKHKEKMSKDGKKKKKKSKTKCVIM

| SMILES | Ratio of IC50 KRAS G12D vs. IC50 KRAS G12S |
| --- | --- |
| N#Cc1ccn(C(=O)N2CCC(Nc3nc(OC[C@@]45CCCN4C[C@H](F)C5)nc4c(F)c(-c5ccc(F)c6sc(N)nc56)c(Cl)cc34)CC2)n1 [Compound A173, 1-(4-((7-(2-amino-7-fluorobenzo[d]thiazol-4-yl)-6-chloro-8-fluoro-2-(((2R,7aS)-2-fluorotetrahydro-1H-pyrrolizin-7a(5H)-yl)methoxy)quinazolin-4-yl)amino)piperidine-1-carbonyl)-1H-pyrazole-3-carbonitrile] | A (A: indicates that the ratio of IC50 against KrasG12D vs. IC50 against KrasG12S is 1-fold or greater) |
| Nc1nc2c(-c3c(Cl)cc4c(N5CCC6(CCN(C(=O)n7cncn7)C6)C5)nc(OC[C@@]56CCCN5C[C@H](F)C6)nc4c3F)ccc(F)c2s1 (stereo partly drawn) [Compound A175, (7-(7-(2-amino-7-fluorobenzo[d]thiazol-4-yl)-6-chloro-8-fluoro-2-(((2R,7aS)-2-fluorotetrahydro-1H-pyrrolizin-7a(5H)-yl)methoxy)quinazolin-4-yl)-2,7-diazaspiro[4.4]nonan-2-yl)(1H-1,2,4-triazol-1-yl)methanone] | A (A: indicates that the ratio of IC50 against KrasG12D vs. IC50 against KrasG12S is 1-fold or greater) |
| Nc1nc2c(-c3c(Cl)cc4c(N5CC6CCC5CN6C(=O)n5cncn5)nc(OC[C@@]56CCCN5C[C@H](F)C6)nc4c3F)ccc(F)c2s1 (stereo partly drawn) [Compound A192, (5-(7-(2-amino-7-fluorobenzo[d]thiazol-4-yl)-6-chloro-8-fluoro-2-(((2R,7aS)-2-fluorotetrahydro-1H-pyrrolizin-7a(5H)-yl)methoxy)quinazolin-4-yl)-2,5-diazabicyclo[2.2.2]octan-2-yl)(1H-1,2,4-triazol-1-yl)methanone] | A (A: indicates that the ratio of IC50 against KrasG12D vs. IC50 against KrasG12S is 1-fold or greater) |
| Nc1nc2c(-c3c(Cl)cc4c(N5C[C@H]6CC[C@@H](C5)N6C(=O)n5ccc(F)n5)nc(OC[C@@]56CCCN5C[C@H](F)C6)nc4c3F)ccc(F)c2s1 [Compound A214, ((1R,5S)-3-(7-(2-amino-7-fluorobenzo[d]thiazol-4-yl)-6-chloro-8-fluoro-2-(((2R,7aS)-2-fluorotetrahydro-1H-pyrrolizin-7a(5H)-yl)methoxy)quinazolin-4-yl)-3,8-diazabicyclo[3.2.1]octan-8-yl)(3-fluoro-1H-pyrazol-1-yl)methanone] | A (A: indicates that the ratio of IC50 against KrasG12D vs. IC50 against KrasG12S is 1-fold or greater) |
| N#Cc1c(N)sc2c(F)ccc(-c3c(Cl)cc4c(N5CCOC6(CN(C(=O)n7cncn7)C6)C5)nc(OC[C@@]56CCCN5C[C@H](F)C6)nc4c3F)c12 [Compound A232, 4-(4-(2-(1H-1,2,4-triazole-1-carbonyl)-5-oxa-2,8-diazaspiro[3.5]nonan-8-yl)-6-chloro-8-fluoro-2-(((2R,7aS)-2-fluorotetrahydro-1H-pyrrolizin-7a(5H)-yl)methoxy)quinazolin-7-yl)-2-amino-7-fluorobenzo[b]thiophene-3-carbonitrile] | A (A: indicates that the ratio of IC50 against KrasG12D vs. IC50 against KrasG12S is 1-fold or greater) |
| C[C@H](Oc1nc(OC2CCN(C(=O)Nc3nccs3)C2)c2cc(Cl)c(-c3ccc(F)c4sc(N)c(C#N)c34)c(F)c2n1)[C@@H]1CCCN1C (stereo partly drawn) [Compound A237, 3-((7-(2-amino-3-cyano-7-fluorobenzo[b]thiophen-4-yl)-6-chloro-8-fluoro-2-((S)-1-((S)-1-methylpyrrolidin-2-yl)ethoxy)quinazolin-4-yl)oxy)-N-(thiazol-2-yl)pyrrolidine-1-carboxamide] | A (A: indicates that the ratio of IC50 against KrasG12D vs. IC50 against KrasG12S is 1-fold or greater) |
| Cc1nc(C(C)C)nn1C(=O)N1CC2(CCCN(c3nc(OC[C@@]45CCCN4C[C@H](F)C5)nc4c(F)c(-c5ccc(F)c6sc(N)c(C#N)c56)c(Cl)cc34)C2)C1 [Compound A240, 2-amino-4-(6-chloro-8-fluoro-2-(((2R,7aS)-2-fluorotetrahydro-1H-pyrrolizin-7 a(5H)-yl)methoxy)-4-(2-(3-isopropyl-5-methyl-1H-1,2,4-triazole-1-carbonyl)-2,6-diazaspiro[3.5]nonan-6-yl)quinazolin-7-yl)-7-fluorobenzo[b]thiophene-3-carbonitrile] | A (A: indicates that the ratio of IC50 against KrasG12D vs. IC50 against KrasG12S is 1-fold or greater) |
| CO[C@@H]1CN(C)C[C@H]1Oc1nc(N2CC3CCC(C2)N3C(=O)n2cc(C#N)cn2)c2cc(Cl)c(-c3ccc(F)c4sc(N)nc34)c(F)c2n1 [Compound A248, 1-(3-(7-(2-amino-7-fluorobenzo[d]thiazol-4-yl)-6-chloro-8-fluoro-2-(((3R,4R)-4-methoxy-1-methylpyrrolidin-3-yl)oxy)quinazolin-4-yl)-3,8-diazabicyclo[3.2.1]octane-8-carbonyl)-1H-pyrazole-4-carbonitrile] | A (A: indicates that the ratio of IC50 against KrasG12D vs. IC50 against KrasG12S is 1-fold or greater) |
| Nc1nc2c(-c3c(Cl)cc4c(NC5CCN(C(=O)n6cccn6)CC5)nc(OC[C@@]56CCCN5C[C@H](F)C6)nc4c3F)ccc(F)c2s1 [Compound A254, (4-((7-(2-amino-7-fluorobenzo[d]thiazol-4-yl)-6-chloro-8-fluoro-2-(((2R,7aS)-2-fluorotetrahydro-1H-pyrrolizin-7a(5H)-yl)methoxy)quinazolin-4-yl)amino)piperidin-1-yl)(1H-pyrazol-1-yl)methanone] | A (A: indicates that the ratio of IC50 against KrasG12D vs. IC50 against KrasG12S is 1-fold or greater) |
| CN1CCC[C@H]1COc1nc(N2CC3CCC(C2)N3C(=O)n2cc(C#N)cn2)c2cc(Cl)c(-c3ccc(F)c4sc(N)nc34)c(F)c2n1 [Compound A259, 1-(3-(7-(2-amino-7-fluorobenzo[d]thiazol-4-yl)-6-chloro-8-fluoro-2-(((S)-1-methylpyrrolidin-2-yl)methoxy)quinazolin-4-yl)-3,8-diazabicyclo[3.2.1]octane-8-carbonyl)-1H-pyrazole-4-carbonitrile] | A (A: indicates that the ratio of IC50 against KrasG12D vs. IC50 against KrasG12S is 1-fold or greater) |
| Nc1nc2c(-c3c(Cl)cc4c(NCCN5CCN(C(=O)n6cncn6)CC5=O)nc(OC[C@@]56CCCN5C[C@H](F)C6)nc4c3F)ccc(F)c2s1 [Compound A261, 1-(2-((7-(2-amino-7-fluorobenzo[d]thiazol-4-yl)-6-chloro-8-fluoro-2-(((2R,7aS)-2-fluorotetrahydro-1H-pyrrolizin-7a(5H)-yl)methoxy)quinazolin-4-yl)amino)ethyl)-4-(1H-1,2,4-triazole-1-carbonyl)piperazin-2-one] | A (A: indicates that the ratio of IC50 against KrasG12D vs. IC50 against KrasG12S is 1-fold or greater) |
| Nc1nc2c(-c3c(Cl)cc4c(NC5CCN(C(=O)Nc6ncccn6)CC5)nc(OC[C@@]56CCCN5C[C@H](F)C6)nc4c3F)ccc(F)c2s1 [Compound A262, 4-((7-(2-amino-7-fluorobenzo[d]thiazol-4-yl)-6-chloro-8-fluoro-2-(((2R,7aS)-2-fluorotetrahydro-1H-pyrrolizin-7a(5H)-yl)methoxy)quinazolin-4-yl)amino)-N-(pyrimidin-2-yl)piperidine-1-carboxamide] | A (A: indicates that the ratio of IC50 against KrasG12D vs. IC50 against KrasG12S is 1-fold or greater) |
| Nc1nc2c(-c3c(Cl)cc4c(N5CCN(C6CN(C(=O)n7cncn7)C6)CC5)nc(OC[C@@]56CCCN5C[C@H](F)C6)nc4c3F)ccc(F)c2s1 [Compound A267, (3-(4-(7-(2-amino-7-fluorobenzo[d]thiazol-4-yl)-6-chloro-8-fluoro-2-(((2R,7aS)-2-fluorotetrahydro-1H-pyrrolizin-7a(5H)-yl)methoxy)quinazolm-4-yl)piperazin-1-yl)azetidin-1-yl)(1H-1,2,4-triazol-1-yl)methanone] | A (A: indicates that the ratio of IC50 against KrasG12D vs. IC50 against KrasG12S is 1-fold or greater) |
